Experimental findings from US11517596B2, “Method for alleviating arthritis with postbiotic extract” (CHAMBIO CO., LTD., priority 2020, dated 2022) are described below.

In experiment [1] the test system is SW1353 cells. Nature of the experiment: Determination of TGF-β content (ELISA) of SW1353 cell cultures treated with postbiotic extract and/or nutritional component. As to conditions: 24 hours. The format is cell-based, Human. The protocol: (§1) • 2. Human primary central chondrosarcoma cell line SW1353 was purchased from the Bioresource Collection and Research Center of the Food Industry Research and Development Institute (BCRC of FIRDI, Taiwan). SW1353 cells were grown in a 10-cm Petri dish containing Dulbecco's Modified Eagle's Medium (DMEM) (Thermo Fisher Scientific) supplemented with 10% fetal bovine serum (FBS). The SW1353 cells were cultivated in an incubator with culture conditions set at 37° C. and 5% CO2. Medium change was performed every two to three days. Cell passage was performed when the cultured cells reached 80-90% of confluence. • 3.
The TGF-β content was determined using an enzyme-linked immunosorbent assay (ELISA) kit (Cat. No. 559119, BD Biosciences) in accordance with the manufacturer's instructions.
SW1353 cells were divided into 25 groups, including one control group, twelve comparative groups (i.e., comparative groups L-1 to L-6 and B-1 to B-6), and twelve experimental groups (i.e., experimental groups L-1 to L-6 and B-1 to B-6). Each group of the SW1353 cells was incubated in a respective well of a 96-well culture plate containing 200 μL of DMEM at 1×10^4 cells/well, followed by cultivation in an incubator (37° C., 5% CO2) for 24 hours. […] The cell culture of the control group received no treatment.
After cultivation in an incubator (37° C., 5% CO2) for 24 hours, the respective resultant cell culture was subjected to the determination of TGF-β content according to the method described in section 1 of “General Procedures”.
(§2) SW1353 cells were divided into 28 groups, including fourteen comparative groups (i.e., comparative groups 1L to 7L and […]) and fourteen experimental groups (i.e., experimental groups 1L to 7L and 1B to 7B). Each group of the SW1353 cells was incubated in a respective well of a 96-well culture plate containing 200 μL of DMEM at 1×10^4 cells/well, followed by cultivation in an incubator (37° C., 5% CO2) for 24 hours.
(In general: An ELISA detects its analyte on a solid surface through an enzyme-linked reagent.)

The subject of experiment [2] is SW1353 cells. The experiment can be described thus: Proliferation of SW1353 cells (MTT staining, OD570 converted to cell number). The format is cell-based, Human. The conditions noted are these: 24 hours. How it is done: as §1
SW1353 cells were divided into 3 groups, including one control group and two experimental groups (i.e., experimental groups L and B). Each group of the SW1353 cells was incubated in a respective well of a 96-well culture plate containing 200 μL of DMEM at 1×10^4 cells/well, followed by cultivation in an incubator (37° C., 5% CO2) for 24 hours. […] The cell culture of the control group received no treatment.
After cultivation in an incubator (37° C., 5% CO2) for 24 hours, the respective resultant cell culture was stained with 3-(4,5-Dimethylthiazol-2-yl)-2,5-diphenyltetrazolium bromide (MTT), followed by subjecting the stained cells to determination of absorbance at a wavelength of 570 nm by a spectrophotometer. The OD570 values obtained were subsequently converted to cell numbers based on a correlation curve previously prepared by plotting different known cell numbers of the SW1353 cells versus their OD570 values.
as §2
After cultivation in an incubator (37° C., 5% CO2) for 24 hours, the cell number of each group was determined according to the method described in section C of this example. The fold increase of viable cells was calculated using the following Equation (II): C=D/E (II) where C=fold increase of viable cells • D=cell number of respective experimental group or comparative group • E=cell number of corresponding comparative group 1L, 2L, 3L, 4L, 5L, 6L, or 7L

Setting [3] is: nutritional component only 50 mg/L.
[4] abbreviates: nutritional component only 100 mg/L.
[5] abbreviates: nutritional component only 50 mg/L, this group is the reference of the ratio.
The mark [6] stands for this setting: nutritional component only 100 mg/L, relative to the same component at 50 mg/L.

Turning to `N[C@H]1C(O)O[C@H](CO)[C@@H](O)[C@@H]1O` (stereo partly shown) [Glucosamine], the TGF-β content with SW1353 cells [1] (setting [3]) is recorded as 17.1 pg/mL; with SW1353 cells [1] (setting [4]) it was 20.8 pg/mL. The “Fold increase of viable cells” value is reported as 1.0 in the experiment on SW1353 cells [2] (setting [5]) and 1.1 in the experiment on SW1353 cells [2] (setting [6]).

For the compound Sodium hyaluronate, the TGF-β content stood at 97.3 pg/mL with SW1353 cells [1] (setting [3]) and 102.2 pg/mL in the experiment with SW1353 cells [1] (setting [4]). For the same compound, the “Fold increase of viable cells” value is recorded as 1.0 in the experiment on SW1353 cells [2] (setting [5]) and 1.1 in the experiment with SW1353 cells [2] (setting [6]).

In the case of `O=C1O[C@H]([C@@H](O)CO)C(O)=C1O` [Vitamin C], the TGF-β content with SW1353 cells [1] (setting [3]) worked out at 18.2 pg/mL; with SW1353 cells [1] (setting [4]), 21.1 pg/mL. For the same compound, the “Fold increase of viable cells” value in the experiment with SW1353 cells [2] (setting [5]) and in the experiment with SW1353 cells [2] (setting [6]) was 1.0 each time.

Chondroitin: the TGF-β content with SW1353 cells [1] (setting [3]) is given as 38.3 pg/mL; with SW1353 cells [1] (setting [4]), 44.2 pg/mL. The entries for the “Fold increase of viable cells” value with SW1353 cells [2] (setting [5]) and with SW1353 cells [2] (setting [6]) were 1.0 and 1.1, respectively.
